US20070292951A1, “MEDIA AND METHODS FOR CULTURING PLANT EMBRYOS” (priority 1997, published 2007)

Legend:
[1] = test system: Brassica napus microspores; experiment: Microspore embryogenesis in liquid half-strength NLN medium with different osmotica; type: cell-based, Brassica napus L. cv. Topas; details: for Induction of MD embryos: within two weeks, 13% sucrose, 8% mannitol or 25% PEG 4000 (w/v), mannitol and PEG media with about 0.08%-0.1% sucrose
Method: A mixed population consisting of microspores from mid- and late-uninucleate stages to young bicellular pollen was isolated from the flower buds using a protocol modified from that described by Ferrie and Keller, in: Gamborg and Phillips (eds) Plant Cell, Tissue and Organ Culture, Fundamental methods, pp 155-164, 1993 (Springer Verlag). For each treatment, twelve surface-sterilized buds (3.6-4.2 mm in length) were macerated in 5 ml half-strength B5 washing medium (Gamborg et al., Exp. Cell Res. 50:151-158, 1968) containing 13% sucrose (w/v) in 50 ml beakers. The crude suspension was filtered through 44 μm Nytex nylon mesh, both beakers and meshes were rinsed, and a total of 20 ml was collected into 50 ml centrifuge tubes and centrifuged at 150×g for 3 minutes. The pellets were resuspended in 5 ml of washing medium, the washing procedure was repeated twice, and the final supernatant was carefully pipetted out, leaving the pellet in approximately 0.3-0.4 ml of washing medium. Final resuspension was done by adding filter-sterilized half-strength NLN medium (Lichter, Z. Pflanzenphysiol. 105:427-434, 1982) containing 13% (w/v) sucrose as the control treatment; in the other two treatments, ½ NLN sucrose-free medium with 8% (w/v) mannitol or 25% (w/v) PEG 4000 (Fluka Chemika) was added, respectively. Therefore, the ½ NLN-mannitol and -PEG media contained only about 0.08%-0.1% sucrose, remaining from the washing medium.
Aliquots of […] of microspore suspension were plated into 10×15 mm sterile petri dishes, with an approximate plating density of 40,000 microspores/ml. Plates were first incubated at 35° C. for one hour followed by 33° C. for the next 14-18 hours and then placed on a shaker (50 rpm) in the dark at 24° C. for 14 days. During the first 8 days in culture, PEG and mannitol media were gradually diluted by adding to the plates an adequate volume of a simple ½ NLN medium, containing no sucrose. mannitol, or PEG, to give a final concentration of approximately 22% PEG and 7% mannitol. The concentration of sucrose in the control treatment was lowered the same way to a final concentration of 11%. After two weeks, plates with MD embryos were placed under light (16/8 hours photoperiod) at 24° C. for an additional week. Experiments dealing with mannitol as osmoticum were repeated three times with five replicates, while experiments dealing with PEG and sucrose as a control were repeated at least ten times with a minimum of three replicates.
Microspores at late unicellular stage and young bicellular pollen were isolated from the flower buds using a protocol for Brassica napus, modified from that described by Ferrie and Keller, in: Gamborg and Phillips (eds) Plant Cell, Tissue and Organ Culture, Fundamental methods, pp 155-164, 1993 (Springer Verlag). Twelve surface-sterilized buds (3.6-4.2 mm in length) were macerated in a 50 ml beaker with 5 ml half-strength B5 washing medium (Gamborg et al., Exp. Cell Res. 50:151-158, 1968) containing 13% sucrose (w/v). The crude suspension was filtered through 44 μm nylon mesh and centrifuged at 150×g for 3 minutes, and the pellet was resuspended in 5 ml of washing medium. The washing procedure was repeated twice, and the final supernatant was carefully pipetted out, leaving the pellet in approximately 0.3-0.4 ml of washing medium. Final resuspension was done by adding filter-sterilized half-strength NLN medium (Lichter, Z. Pflanzenphysiol 105:427-434, 1982) containing either 13% sucrose (w/v) as a control or 25% (w/v) polyethylene glycol 4000 (Fluka Chemika). Therefore, the final ½ NLN-PEG medium contained only about 0.08%-0.1% sucrose, remaining from the washing medium.
Aliquots of 10 ml of the microspore suspension were plated into 10×15 mm sterile petri dishes, with an approximate plating density of 40,000 microspores/ml. Plates were first incubated at 35° C. for one hour followed by 33° C. for the next 14-18 hours and then placed on a shaker (50 rpm) in the dark at 24° C. for 14 days. […]

[2] = test system: Brassica napus MD embryos; experiment: Conversion of three-week-old MD embryos into plantlets on hormone-free solid medium; type: cell-based; details: embryos grown on the named osmoticum
Method: Plates containing the embryos may then be placed under light at 24° C. for an additional week. Once placed under light, the embryos generally increase in size and become green quickly. Within one week under light, cotyledons are typically well-developed, often widely opened and dark green, and the embryos are morphologically similar to zygotic embryos dissected from ovules (see FIGS. 2A-2C). The three-week embryos may then be rinsed and transferred to culture containers containing a suitable medium, such as half-strength B5 medium containing 1% sucrose and no growth regulators. The conversion frequency is the percentage of MD embryos that develop roots, true leaves and a green color within 3-4 weeks. Aliquots of 10 ml of the microspore suspension were plated into 10×15 mm sterile petri dishes, with an approximate plating density of 40,000 microspores/ml. Plates were first incubated at 35° C. for one hour followed by 33° C. for the next 14-18 hours and then placed on a shaker (50 rpm) in the dark at 24° C. for 14 days. […] Conversion frequency (%) of sucrose- and PEG-cultured MD embryos was recorded based on presence of roots, appearance of first true leaves and green color of plantlets, with three replicates for each treatment.

SMILES | Cell divisions of microspores after heat shock treatment ([1]; mannitol solution) | Induction of MD embryos [1] | Embryo length at heart-shaped stage ([1]; SEM) | Embryo length at torpedo stage ([1]; SEM) | Proembryo size at globular-to-heart-shaped transition ([1]; about day 8, SEM) | Embryo length, cotyledonary stage ([1]; after two weeks in culture) | Starch grains and protein bodies in cotyledon stage embryos ([1]; light microscopy) | Morphology of three-week-old MD embryos compared with zygotic embryos (14 and 15 DPA) ([1]; three weeks, last week under light) | Plantlet morphology after transfer to solid medium [2]
OC[C@@H](O)[C@@H](O)[C@H](O)[C@H](O)CO [mannitol] | no divisions were observed | yielded no embryos |  |  |  |  |  |  | 
OC[C@H]1O[C@@](CO)(O[C@H]2O[C@H](CO)[C@@H](O)[C@H](O)[C@H]2O)[C@@H](O)[C@@H]1O [sucrose] |  | developed into embryos | approximately 300 μm | ≥ 400 μm | 150-250 μm | 2-4 mm | abundant starch grains with no protein bodies | pale green, had elongated embryo axes and relatively small underdeveloped cotyledons | hypocotyls were short, often thick (hyperhydrated) and aberrant
